Measurements taken from paper PMC8745342, “In Vitro and In Silico Kinetic Studies of Patented 1,7-diEthyl and 1,7-diMethyl Aminoalkanol Derivatives as New Inhibitors of Acetylcholinesterase” (International Journal of Molecular Sciences, 2021).

Molecular target: T1, Acetylcholinesterase human (AChE) (Homo sapiens, UniProt P22303)
T1 construct: purchased Sigma-Aldrich (Poznań, Poland)
Test: AChE inhibition kinetics, Ellman's method combined with capillary electrophoresis
Type: biochemical
Conditions: for Tilt Angle of Lineweaver-Burk line: acetylthiocholine 0.36–46.00 mM, n = 6
Text: In this work, we used the combined Ellman’s method with the capillary electrophoresis method developed by us for the determination of 4,4-dithio-bis-acid nitrobenzoic (DBAN) (main enzyme reaction product) in the presence of acetylthiocholine (ACth), 5-thio-2-nitrobenzoic acid (NTB), 5,5′-dithio-bis-2-nitrobenzoic acid (DTNB), acetylcholinesterase (AChE) and inhibitors (I), (II), (III) and (IV) of acetylcholinesterase. For the development of this method, we optimized the buffer pH, separating background electrolyte (BGE) concentration, wavelength, temperature, and voltage. […] All these separation systems were tested to achieve the best separation parameters, resolution, and analysis time for all components in the reaction mixture. […] Separation was carried out at 15 kV. Each sample was added to the capillary under hydrodynamic injection.
The samples were injected under 5 psi pressure for 3 s. The experiments were performed under constant current conditions (85 μA). […] Before the assay, the capillary was conditioned with 0.1 M NaOH for 10 min at 10 psi and with H2O for 10 min at 10 psi. Then, it was electro conditioned with the running buffer for 20 min at +10 kV and pressure-conditioned with the running buffer for 10 min at 10 psi. Before each injection, the capillary was washed with 1 M NaOH for 2 min, then with H2O for 2 min, and finally with BGE for 2 min. At the end of each working day, the capillary was rinsed for 10 min with 0.1 M NaOH, 10 min with BGE, and 10 min with deionized water at 15 psi. Then, the capillary was exposed to air for 10 min at 20 psi and left empty.
Sample mixtures containing 4,4-dithio-bis-acid nitrobenzoic (DBAN) (main enzyme reaction product) in the presence of acetylthiocholine (ACth), 5-thio-2-nitrobenzoic acid (NTB), 5,5′-dithio-bis-2-nitrobenzoic acid (DTNB), acetylcholinesterase (AChE) and inhibitors (I), (II), (III) and (IV) were introduced automatically by pressure injection (with 2 psi pressure for 5 s on the sample solution). At the day’s end, vials with anode and cathode buffer were emptied and running buffer was filled again at the start of the next day before the analysis.
Acetylcholinesterase activity was determined according to the method by Ellman et al. and according to the procedure described by Rosilene R et al. but slightly modified. […] The tubes containing solutions were preincubated for 2 min at 25 °C. Then, 0.1 mL […] AChE was introduced into tubes 1–9, at an interval of 1 min. All 10 samples were incubated for 3 min at 25 °C. After incubation, the analytical samples were introduced into the capillary.
The inhibition constants (Ki) were calculated from the plotted Lineweaver–Burk curves for the four concentrations of the inhibitors (I), (II), (III) and (IV). The method was based on two steps (Figure 8).

[1] = inhibitor 0.08 mM, acetylthiocholine 0.36 mM
[2] = inhibitor 0.08 mM, acetylthiocholine 0.72 mM
[3] = inhibitor 0.08 mM, acetylthiocholine 1.44 mM
[4] = inhibitor 0.08 mM, acetylthiocholine 2.88 mM
[5] = inhibitor 0.08 mM, acetylthiocholine 5.75 mM
[6] = inhibitor 0.08 mM, acetylthiocholine 11.50 mM
[7] = inhibitor 0.08 mM, acetylthiocholine 23.00 mM
[8] = inhibitor 0.08 mM, acetylthiocholine 34.50 mM
[9] = inhibitor 0.08 mM, acetylthiocholine 46.00 mM

T1 sequence (P22303 32-614): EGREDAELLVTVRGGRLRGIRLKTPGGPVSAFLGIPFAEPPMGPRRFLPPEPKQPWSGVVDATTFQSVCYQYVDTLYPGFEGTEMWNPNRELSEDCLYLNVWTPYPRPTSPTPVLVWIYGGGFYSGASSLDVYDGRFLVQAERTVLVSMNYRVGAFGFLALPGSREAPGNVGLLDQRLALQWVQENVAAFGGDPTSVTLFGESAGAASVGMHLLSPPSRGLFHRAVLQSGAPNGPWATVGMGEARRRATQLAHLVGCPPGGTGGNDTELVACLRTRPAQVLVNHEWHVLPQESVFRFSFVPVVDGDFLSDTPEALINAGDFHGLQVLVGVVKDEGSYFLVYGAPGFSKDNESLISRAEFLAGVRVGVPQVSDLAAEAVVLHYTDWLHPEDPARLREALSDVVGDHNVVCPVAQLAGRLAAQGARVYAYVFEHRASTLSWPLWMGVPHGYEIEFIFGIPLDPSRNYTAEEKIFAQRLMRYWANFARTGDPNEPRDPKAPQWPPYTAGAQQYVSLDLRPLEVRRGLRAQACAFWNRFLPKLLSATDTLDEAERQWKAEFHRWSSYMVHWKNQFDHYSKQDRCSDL

CN(C)CC(O)CN1C(=O)C2C(C1=O)C1(C)C(=O)C2(C)C(c2ccccc2)=C1c1ccccc1 (stereo not shown) [Compound (IV)]
type of AChE inhibition (from Lineweaver-Burk plots, Km and Vmax): competitive | IC50 (from activity (%) versus inhibitor concentration plots): 35 ± 1 µM | Vmax (inhibitor 0.01 mM): 0.63 ± 0.02 mM/min | Tilt Angle of Lineweaver-Burk line (inhibitor 0.01 mM): 59.58 ± 0.04 ° | Vmax (inhibitor 0.02 mM): 0.63 ± 0.02 mM/min | Tilt Angle of Lineweaver-Burk line (inhibitor 0.02 mM): 60.09 ± 0.04 ° | Vmax (inhibitor 0.04 mM): 0.64 ± 0.03 mM/min | Tilt Angle of Lineweaver-Burk line (inhibitor 0.04 mM): 65.58 ± 0.03 ° | Vmax (inhibitor 0.06 mM): 0.63 ± 0.01 mM/min | Tilt Angle of Lineweaver-Burk line (inhibitor 0.06 mM): 69.76 ± 0.03 ° | Vmax (inhibitor 0.08 mM): 0.64 ± 0.03 mM/min | 1/Vo, mean [1]: 9.85 min/mM | Peak area of product (4,4-dithio-bis-acid nitrobenzoic), mean [1]: 45817 | V0 (reaction speed), mean [1]: 0.10 mM/min | 1/Vo, mean [2]: 5.40 min/mM | Peak area of product (4,4-dithio-bis-acid nitrobenzoic), mean [2]: 84020 | V0 (reaction speed), mean [2]: 0.19 mM/min | 1/Vo, mean [3]: 3.50 min/mM | Peak area of product (4,4-dithio-bis-acid nitrobenzoic), mean [3]: 118587 | V0 (reaction speed), mean [3]: 0.29 mM/min | amount of 4,4-dithio-bis-acid nitrobenzoic (DBAN) product in the presence of inhibitor (inhibitor 0.08 mM, acetylthiocholine 1.44 mM, 0.66 mM without inhibitors): 0.48 mM | 1/Vo, mean [4]: 2.30 min/mM | Peak area of product (4,4-dithio-bis-acid nitrobenzoic), mean [4]: 157575 | V0 (reaction speed), mean [4]: 0.43 mM/min | 1/Vo, mean [5]: 2.05 min/mM | Peak area of product (4,4-dithio-bis-acid nitrobenzoic), mean [5]: 190708 | V0 (reaction speed), mean [5]: 0.49 mM/min | 1/Vo, mean [6]: 1.80 min/mM | Peak area of product (4,4-dithio-bis-acid nitrobenzoic), mean [6]: 212913 | V0 (reaction speed), mean [6]: 0.56 mM/min | 1/Vo, mean [7]: 1.70 min/mM | Peak area of product (4,4-dithio-bis-acid nitrobenzoic), mean [7]: 228126 | V0 (reaction speed), mean [7]: 0.59 mM/min | 1/Vo, mean [8]: 1.55 min/mM | Peak area of product (4,4-dithio-bis-acid nitrobenzoic), mean [8]: 230596 | V0 (reaction speed), mean [8]: 0.65 mM/min | 1/Vo, mean [9]: 1.50 min/mM | Peak area of product (4,4-dithio-bis-acid nitrobenzoic), mean [9]: 231671 | V0 (reaction speed), mean [9]: 0.65 mM/min | Tilt Angle of Lineweaver-Burk line (inhibitor 0.08 mM): 70.40 ± 0.03 °
